Common to all, as to format: cell-based
Assay [1] concerns DAN-G. Nature of the assay: CellTiter-Glo luminescent cell viability (proliferation) assay, DAN-G. The following applies: DAN-G (human pancreatic carcinoma) proliferation, 48 hours incubation, 10% FCS. The procedure:
(§1) To practically assess the impact of the thiazole-piperidine derivatives, e.g. derivatives of piperidinyl-thiazole carboxylic acid and/or piperidinyl thiazole carboxamide, in the treatment and/or prevention of diseases according to the invention, the inhibition of cell proliferation is determined by using a luminescent cell viability assay (CellTiter-Glo®; Promega, Madison, USA). The assay is based on the relation that the ATP content is directly proportional to the number of cells present in the culture. The CellTiter-Glo® assay is performed to measure the proliferation rate of human hepatoma (HuH7, PLC/PRF/5, Hep3B, SK-Hep1), human hepatoblastoma (HepG2), human colon carcinoma (CX-2), human breast cancer (SK-Br-3), human ovarian carcinoma (HeLa) and human pancreatic carcinoma (DAN-G) cell lines. […] In particular, the compound according to formula (1) wherein R^1 is 4-isopropoxycarbonylphenyl, R^2 is 3-indolylmethyl, R^3 is hydrogen, R^4 is hydrogen, n is zero, A is a single bond, B is carbonyl, and wherein the residue R^1NR^3CO is connected to the carbon atom bound to nitrogen of the thiazole ring (compound no. XI in Table 1) inhibits proliferation of the human cell lines HepG2 and Hep3B with 10.8 and 3.5 µM, respectively.
(§2) To determine the inhibition of cell proliferation a luminescent cell viability assay (CellTiter-Glo®; Promega, Madison, USA) is implemented. The assay is based on the relation that the ATP content is directly proportional to the number of cells present in the culture (Technical Bulletin No. 228 "CellTiter-Glo® Luminescent Cell viability Assay", Revised 2/04. Promeg, Madison, USA). The CellTiter-Glo® assay is performed to measure the proliferation rate of human hepatoma (HuH7, PLC/PRF/5, Hep3B, SK-Hep1), human hepatoblastoma (HepG2), human colon carcinoma (CX-2), human breast cancer (SK-Br-3), human ovarian carcinoma (HeLa) and human pancreatic carcinoma (DAN-G) cell lines. 3000 viable cells (viability ≥ 90%) are seeded in opaque-walled 96-well plates and incubated for 24 hours in DMEM, supplemented with 2 mM glutamin. Cell proliferation is stimulated by addition of FCS to a final concentration of 10% (v/v). Simultaneously the compounds (see Table 1 and 2) are added in a concentration range of 0 to 20 µM. Triplicates are measured for each concentration. Cells and compounds (see Table 1 and 2) are incubated for a period of 48 hours in a volume of 140 µl cell culture medium (10% (v/v) FCS, 2 mM Glutamin, DMEM). The compounds according to the invention are dissolved in 60% to 100% (v/v) DMSO at a concentration of 2 mM. The final DMSO concentration under assay conditions never exceeds 1% (v/v). Throughout the assay cells are kept in a humidified incubator (95% rH) at 37°C and 5% CO2.
(§3) The final cell number is determined after 48 hour of incubation. Therefore 140 µl CellTiter-Glo®Reagent is added in each well. The contents are mixed on an orbital shaker for 2 minutes at room temperature. After subsequent incubation for additional 10 minutes at room temperature the luminescence signal is recorded within 30 min. EC50 values are calculated using the four-parametric Hill equation (Sigma Plot). Control values are: • 1) 10% (v/v) FCS, 2 mM glutamin, DMEM -> maximum cell number • 2) 2 mM glutamin, DMEM -> initial cell number

In assay [2] the test system is CX-2. The assay is described as follows: CellTiter-Glo luminescent cell viability (proliferation) assay, CX-2. The following applies: CX-2 (human colon carcinoma) proliferation, 48 hours incubation, 10% FCS. The method, then: as §1, §2, §3
On the technique in general: ATP-based viability assays read luminescence as a measure of living cells.

The subject of assay [3] is HeLa. The assay is described as follows: CellTiter-Glo luminescent cell viability (proliferation) assay, HeLa. Particulars: Hela (human ovarian carcinoma [sic]) proliferation, 48 hours incubation, 10% FCS. The method, then: as §1, §2, §3
In assay [4] the test system is SK-Br-3. Nature of the assay: CellTiter-Glo luminescent cell viability (proliferation) assay, SK-Br-3. Particulars: Sk-Br-3 (human breast cancer) proliferation, 48 hours incubation, 10% FCS. The method, then:
as §1, §2, §3

Assay [5] deals with HuH7. The assay is described as follows: CellTiter-Glo luminescent cell viability (proliferation) assay, HuH7. Particulars: inhibition of HuH7 (human hepatoma) proliferation, 48 hours incubation, 10% FCS. The procedure:
as §1, §2, §3

Assay [6] has as its system Hep3B. Nature of the assay: CellTiter-Glo luminescent cell viability (proliferation) assay, Hep3B. Particulars: Hep3B (human hepatoma), 48 hours incubation, 10% FCS; read-out: inhibits proliferation. The procedure:
(§4) To practically assess the impact of the thiazole-piperidine derivatives, e.g. derivatives of piperidinyl-thiazole carboxylic acid and/or piperidinyl thiazole carboxamide, in the treatment and/or prevention of diseases according to the invention, the inhibition of cell proliferation is determined by using a luminescent cell viability assay (CellTiter-Glo®; Promega, Madison, USA). The assay is based on the relation that the ATP content is directly proportional to the number of cells present in the culture. The CellTiter-Glo® assay is performed to measure the proliferation rate of human hepatoma (HuH7, PLC/PRF/5, Hep3B, SK-Hep1), human hepatoblastoma (HepG2), human colon carcinoma (CX-2), human breast cancer (SK-Br-3), human ovarian carcinoma (HeLa) and human pancreatic carcinoma (DAN-G) cell lines. […]
(§5) To determine the inhibition of cell proliferation a luminescent cell viability assay (CellTiter-Glo®; Promega, Madison, USA) is implemented. […] Triplicates are measured for each concentration. […]
(§6) The final cell number is determined after 48 hour of incubation. […] After subsequent incubation for additional 10 minutes at room temperature the luminescence signal is recorded within 30 min. EC50 values are calculated using the four-parametric Hill equation (Sigma Plot). […]

In assay [7] the test system is HepG2. Nature of the assay: CellTiter-Glo luminescent cell viability (proliferation) assay, HepG2. Particulars: HepG2 (human hepatoblastoma), 48 hours incubation, 10% FCS; read-out: inhibits proliferation. The method, then: as §4, §5, §6

Where only a bound is given, the exact number is not on record here.

Regarding `O=C(Nc1cc(-c2cccs2)n[nH]1)c1csc(C2CCN(C(=O)N3CCN(c4ccccn4)CC3)CC2)n1` [XXXIII], the EC50 in assay [1] is 13.8 µM; in assay [2], more than 20 µM; in assay [3], 11.6 µM; in assay [4] it was more than 20 µM; in assay [5] (Homo sapiens, Huh-7, 48 h), 3.23 µM.

With `COc1ccc(NC(=O)c2csc(C3CCN(C(=O)NC4C=C(c5ccccc5)N=N4)CC3)n2)cn1` (stereo not shown) [XIII], the EC50 is 8.9 µM in assay [1]; more than 20 µM in assay [2]; 10.1 µM in assay [3]; 12.3 µM in assay [4]; 5.3 µM in assay [5] (Homo sapiens, Huh-7, 48 h).

With `O=C(Nc1nccs1)c1csc(C2CCN(C(=O)Cc3c[nH]c4ccccc34)CC2)n1` [X], the EC50 in assay [1] is 2.53 µM; in assay [2], more than 20 µM; in assay [3], 18 µM; in assay [4], 18.9 µM; in assay [5] (Huh-7), 1.54 µM.

In the case of `Cc1ccc2cc(NC(=O)c3csc(C4CCN(C(=O)CC5C=Nc6ccccc65)CC4)n3)ccc2n1` (stereo not shown) [V], the EC50 was 6.9 µM in assay [1]; more than 20 µM in assay [2]; 8.79 µM in assay [3]; 10.8 µM in assay [4]; 4.68 µM in assay [5] (Homo sapiens, Huh-7, 48 h).

Consider `O=C(Nc1ccc(F)c([N+](=O)[O-])c1)c1csc(C2CCN(C(=O)Cc3c[nH]c4ccccc34)CC2)n1` [II], for which the EC50 is 3.16 µM in assay [1]; more than 20 µM in assay [2]; 12.1 µM in assay [3]; 10.4 µM in assay [4]; 3.42 µM in assay [5] (Huh-7).

For `Cc1ccc(NC(=O)c2csc(C3CCN(C(=O)CC4C=Nc5ccccc54)CC3)n2)cc1F` (stereo not shown) [XV], the EC50 in assay [1] stood at 3.81 µM; in assay [2], 10.9 µM; in assay [3], 17.2 µM; in assay [4], 10.8 µM; in assay [5] (Homo sapiens, Huh-7, 48 h), 1.64 µM.

On to `O=C(Nc1ccc2ncccc2c1)c1csc(C2CCN(C(=O)CC3C=Nc4ccccc43)CC2)n1` (stereo not shown) [III], for which the EC50 in assay [1] was found to be 1.99 µM; in assay [2], 9.3 µM; in assay [3], 3.95 µM; in assay [4], 7.07 µM; in assay [5] (Homo sapiens, Huh-7, 48 h) it was 1.39 µM.

`C=CCSc1ncccc1C(=O)N1CCC(c2nc(C(=O)Nc3cc(-c4ccccc4)nn3C)cs2)CC1` [XXXI]: the EC50 in assay [1] is 3.58 µM; in assay [2], 10.4 µM; in assay [3], 20.5 µM; in assay [4], 10.2 µM; in assay [5] (Homo sapiens, Huh-7, 48 h) it was 0.5 µM.

On to `O=C(CC1C=Nc2ccccc21)N1CCC(c2nc(C(=O)N3CCN(c4ncccn4)CC3)cs2)CC1` (stereo not shown) [LIII], for which the EC50 was 18.2 µM in assay [1]; more than 20 µM in assay [2]; 23.6 µM in assay [3]; 19.5 µM in assay [4]; 1.63 µM in assay [5] (Homo sapiens, Huh-7, 48 h).

With `COc1ccc(CNC(=O)c2csc(C3CCN(C(=O)CC4C=Nc5ccccc54)CC3)n2)cc1OC` (stereo not shown) [IV], the EC50 in assay [1] was 7.52 µM; in assay [2] it was more than 20 µM; in assay [3] it was 10.3 µM; in assay [4], more than 20 µM; in assay [5] (Homo sapiens, Huh-7, 48 h) it was 3.76 µM.

As for `CC(C)OC(=O)c1ccc(NC(=O)c2csc(C3CCN(C(=O)CC4C=Nc5ccccc54)CC3)n2)cc1` (stereo not shown) [XI, 2-[1-{indol-3-yl-methylcarboxyl}piperidine-4-yl]-thiazole-4-yl-caboxylic acid (4-isoproxycarboxy-phenyl) amide], the EC50 in assay [6] amounted to 3.5 µM; in assay [1], 7.63 µM; in assay [2] it was 22.3 µM; in assay [3], 26.3 µM; in assay [4] it was 10.2 µM; in assay [7], 10.8 µM. The compound further returned an EC50 in assay [5] (Homo sapiens, Huh-7, 48 h) of 0.36 µM.

In the case of `O=C(NC1CCc2ccccc21)c1csc(C2CCN(C(=O)CC3C=Nc4ccccc43)CC2)n1` (stereo not shown) [XLVII], the EC50 came out at 9.7 µM in assay [1]; 19.9 µM in assay [2]; 13.6 µM in assay [3]; 11.2 µM in assay [4]; 9.15 µM in assay [5] (Homo sapiens, Huh-7, 48 h).

As to `O=C(NCc1ccccc1[N+](=O)[O-])c1csc(C2CCN(C(=O)Cc3c[nH]c4ccccc34)CC2)n1` [XL], the EC50 in assay [1] came to 9.01 µM; in assay [2], 14.9 µM; in assay [3], 22.9 µM; in assay [4] it was 23.8 µM; in assay [5] (Huh-7), 2.98 µM.

Values taken from patent EP1832586A1, “Thiazole-piperidine derivatives in treatment of diseases of liver and the pancreas” (Oridis Biomed Forschungs- und Entwicklungs GmbH, priority 2006, dated 2007).
